In the supplement of paper PMC10307832:

Experiments:
Experiment in all cases: relative viability (nuclei count vs DMSO), 5 days (fraction); higher = more cells survive
Carboplatin + Alpelisib = compound: C1CC(C1)(C(=O)O)C(=O)O.[NH2-].[NH2-].[Pt+2] [Carboplatin] + Cc1nc(NC(=O)N2CCC[C@H]2C(N)=O)sc1-c1ccnc(C(C)(C)C(F)(F)F)c1 [Alpelisib] (partner 2 µM)
Summary of the method: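 Lung cancer cell lines were pin-tool dosed in 1536-well plates on the day after seeding, with either a lone drug or a fixed anchor-drug dose plus five library-drug doses (not always all listed) in √10 steps. Nuclei were counted on 4× images after 5 days. Relative viability is the ratio of treated-well to vehicle-well nuclei counts, with each value a median of duplicate plates.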

MLN4924 = compound: NS(=O)(=O)OC[C@@H]1C[C@@H](n2ccc3c(N[C@H]4CCc5ccccc54)ncnc32)C[C@@H]1O [MLN4924]
Summary of the method: (§1)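 Only plates meeting two conditions passed: control CV below 25% and at least one doubling. Lung cancer cell lines, kept overnight at 37 °C in 1536-well plates, were pinned with five library-drug doses (not always all listed) √10 apart on vehicle-anchored plates and grown 5 days without medium change. A one-step fix, permeabilisation and Hoechst stain preceded 4× imaging and MetaXpress nuclear counting. Viability equals treated-well nuclei divided by vehicle-well nuclei, as the median over plates.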

Carboplatin = compound: C1CC(C1)(C(=O)O)C(=O)O.[NH2-].[NH2-].[Pt+2] [Carboplatin]
Summary of the method: as §1

GSK126 = compound: CC[C@H](C)N1C=C(C2=C(C=C(C=C21)C3=CN=C(C=C3)N4CCNCC4)C(=O)NCC5=C(C=C(NC5=O)C)C)C [GSK126]
Summary of the method: as §1

NCI-H2087
relative viability (Carboplatin + Alpelisib; first compound 0.08 µM): 1.18 | relative viability (Carboplatin + Alpelisib; first compound 0.253 µM): 1.04 | relative viability (Carboplatin + Alpelisib; first compound 0.8 µM): 0.992 | relative viability (Carboplatin + Alpelisib; first compound 2.53 µM): 0.848 | relative viability (Carboplatin + Alpelisib; first compound 8 µM): 0.647 | relative viability (MLN4924; 0.04 µM): 1.02 | relative viability (MLN4924; 0.1265 µM): 0.969 | relative viability (MLN4924; 0.4 µM): 0.491 | relative viability (MLN4924; 1.265 µM): 0.16 | relative viability (MLN4924; 4 µM): 0.0937 | relative viability (Carboplatin; 0.08 µM): 1.14 | relative viability (Carboplatin; 0.253 µM): 1.21 | relative viability (Carboplatin; 0.8 µM): 0.997 | relative viability (Carboplatin; 2.53 µM): 0.999 | relative viability (Carboplatin; 8 µM): 0.711 | relative viability (GSK126; 0.08 µM): 1.18 | relative viability (GSK126; 0.253 µM): 0.945 | relative viability (GSK126; 0.8 µM): 1 | relative viability (GSK126; 2.53 µM): 1.15 | relative viability (GSK126; 8 µM): 1.17

NCI-H1944
relative viability (Carboplatin + Alpelisib; first compound 0.08 µM): 0.98 | relative viability (Carboplatin + Alpelisib; first compound 0.253 µM): 0.857 | relative viability (Carboplatin + Alpelisib; first compound 0.8 µM): 0.813 | relative viability (Carboplatin + Alpelisib; first compound 2.53 µM): 0.701 | relative viability (Carboplatin + Alpelisib; first compound 8 µM): 0.643 | relative viability (MLN4924; 0.04 µM): 0.975 | relative viability (MLN4924; 0.1265 µM): 0.788 | relative viability (MLN4924; 0.4 µM): 0.583 | relative viability (MLN4924; 1.265 µM): 0.176 | relative viability (MLN4924; 4 µM): 0.176 | relative viability (Carboplatin; 0.08 µM): 0.887 | relative viability (Carboplatin; 0.253 µM): 0.967 | relative viability (Carboplatin; 0.8 µM): 0.922 | relative viability (Carboplatin; 2.53 µM): 0.981 | relative viability (Carboplatin; 8 µM): 0.644 | relative viability (GSK126; 0.08 µM): 1.1 | relative viability (GSK126; 0.253 µM): 0.902 | relative viability (GSK126; 0.8 µM): 1 | relative viability (GSK126; 2.53 µM): 0.998 | relative viability (GSK126; 8 µM): 1.13

NCI-H1623
relative viability (MLN4924; 0.04 µM): 0.744 | relative viability (MLN4924; 0.1265 µM): 0.53 | relative viability (MLN4924; 0.4 µM): 0.443 | relative viability (MLN4924; 1.265 µM): 0.298 | relative viability (MLN4924; 4 µM): 0.246 | relative viability (Carboplatin; 0.08 µM): 1.03 | relative viability (Carboplatin; 0.253 µM): 0.963 | relative viability (Carboplatin; 0.8 µM): 0.872 | relative viability (Carboplatin; 2.53 µM): 0.875 | relative viability (Carboplatin; 8 µM): 0.695 | relative viability (GSK126; 0.08 µM): 0.974 | relative viability (GSK126; 0.253 µM): 1.04 | relative viability (GSK126; 0.8 µM): 0.959 | relative viability (GSK126; 2.53 µM): 0.954 | relative viability (GSK126; 8 µM): 1

NCI-H2342
relative viability (MLN4924; 0.04 µM): 1.18 | relative viability (MLN4924; 0.1265 µM): 0.931 | relative viability (MLN4924; 0.4 µM): 0.97 | relative viability (MLN4924; 1.265 µM): 0.788 | relative viability (MLN4924; 4 µM): 0.57 | relative viability (Carboplatin; 0.08 µM): 1.06 | relative viability (Carboplatin; 0.253 µM): 0.987 | relative viability (Carboplatin; 0.8 µM): 1.07 | relative viability (Carboplatin; 2.53 µM): 1.02 | relative viability (Carboplatin; 8 µM): 0.873 | relative viability (GSK126; 0.08 µM): 1.12 | relative viability (GSK126; 0.253 µM): 1.04 | relative viability (GSK126; 0.8 µM): 1.07 | relative viability (GSK126; 2.53 µM): 1.05 | relative viability (GSK126; 8 µM): 1.17

NCI-H1650
relative viability (MLN4924; 0.04 µM): 0.708 | relative viability (MLN4924; 0.1265 µM): 0.578 | relative viability (MLN4924; 0.4 µM): 0.286 | relative viability (MLN4924; 1.265 µM): 0.171 | relative viability (MLN4924; 4 µM): 0.201 | relative viability (Carboplatin; 0.08 µM): 0.995 | relative viability (Carboplatin; 0.253 µM): 0.888 | relative viability (Carboplatin; 0.8 µM): 0.933 | relative viability (Carboplatin; 2.53 µM): 0.812 | relative viability (Carboplatin; 8 µM): 0.638 | relative viability (GSK126; 0.08 µM): 1.05 | relative viability (GSK126; 0.253 µM): 0.948 | relative viability (GSK126; 0.8 µM): 0.954 | relative viability (GSK126; 2.53 µM): 1.02 | relative viability (GSK126; 8 µM): 1.03

NCI-H1648
relative viability (MLN4924; 0.04 µM): 0.635 | relative viability (MLN4924; 0.1265 µM): 0.448 | relative viability (MLN4924; 0.4 µM): 0.329 | relative viability (MLN4924; 1.265 µM): 0.246 | relative viability (MLN4924; 4 µM): 0.32 | relative viability (Carboplatin; 0.08 µM): 1.13 | relative viability (Carboplatin; 0.253 µM): 0.878 | relative viability (Carboplatin; 0.8 µM): 0.871 | relative viability (Carboplatin; 2.53 µM): 0.6 | relative viability (Carboplatin; 8 µM): 0.813 | relative viability (GSK126; 0.08 µM): 0.932 | relative viability (GSK126; 0.253 µM): 0.783 | relative viability (GSK126; 0.8 µM): 1.07 | relative viability (GSK126; 2.53 µM): 1.2 | relative viability (GSK126; 8 µM): 0.725

ChaGo-K-1
relative viability (MLN4924; 0.04 µM): 0.858 | relative viability (MLN4924; 0.1265 µM): 0.833 | relative viability (MLN4924; 0.4 µM): 0.503 | relative viability (MLN4924; 1.265 µM): 0.238 | relative viability (MLN4924; 4 µM): 0.23 | relative viability (Carboplatin; 0.08 µM): 0.989 | relative viability (Carboplatin; 0.253 µM): 0.959 | relative viability (Carboplatin; 0.8 µM): 0.93 | relative viability (Carboplatin; 2.53 µM): 0.818 | relative viability (Carboplatin; 8 µM): 0.614 | relative viability (GSK126; 0.08 µM): 1.01 | relative viability (GSK126; 0.253 µM): 1.03 | relative viability (GSK126; 0.8 µM): 0.973 | relative viability (GSK126; 2.53 µM): 1.05 | relative viability (GSK126; 8 µM): 1.02

SW 900
relative viability (MLN4924; 0.04 µM): 0.68 | relative viability (MLN4924; 0.1265 µM): 0.825 | relative viability (MLN4924; 0.4 µM): 0.384 | relative viability (MLN4924; 1.265 µM): 0.21 | relative viability (MLN4924; 4 µM): 0.184 | relative viability (Carboplatin; 0.08 µM): 0.808 | relative viability (Carboplatin; 0.253 µM): 0.774 | relative viability (Carboplatin; 0.8 µM): 0.822 | relative viability (Carboplatin; 2.53 µM): 0.837 | relative viability (Carboplatin; 8 µM): 0.68 | relative viability (GSK126; 0.08 µM): 0.844 | relative viability (GSK126; 0.253 µM): 0.853 | relative viability (GSK126; 0.8 µM): 0.788 | relative viability (GSK126; 2.53 µM): 0.896 | relative viability (GSK126; 8 µM): 0.892

NCI-H522
relative viability (MLN4924; 0.04 µM): 0.87 | relative viability (MLN4924; 0.1265 µM): 0.777 | relative viability (MLN4924; 0.4 µM): 0.515 | relative viability (MLN4924; 1.265 µM): 0.397 | relative viability (MLN4924; 4 µM): 0.426 | relative viability (Carboplatin; 0.08 µM): 1.12 | relative viability (Carboplatin; 0.253 µM): 0.963 | relative viability (Carboplatin; 0.8 µM): 0.922 | relative viability (Carboplatin; 2.53 µM): 0.873 | relative viability (Carboplatin; 8 µM): 0.881 | relative viability (GSK126; 0.08 µM): 1.1 | relative viability (GSK126; 0.253 µM): 0.929 | relative viability (GSK126; 0.8 µM): 1.01 | relative viability (GSK126; 2.53 µM): 0.977 | relative viability (GSK126; 8 µM): 0.989
